Data reported in publication PMC6549035, “CUMYL-4CN-BINACA Is an Efficacious and Potent Pro-Convulsant Synthetic Cannabinoid Receptor Agonist” (Frontiers in Pharmacology, 2019).

Columns and labels:
[1] = target: T1, human CB1 receptor (hCB1) (Homo sapiens, UniProt P21554); assay: [3H]-CP […] competition radioligand binding on HEK293 membranes
T1 construct: gene CNR1

[2] = target: T2, human CB2 receptor (hCB2) (Homo sapiens, UniProt P34972); assay: as above
T2 construct: gene CNR2; 3-HA tagged CB2 receptor
T2 sequence (P34972 whole entry): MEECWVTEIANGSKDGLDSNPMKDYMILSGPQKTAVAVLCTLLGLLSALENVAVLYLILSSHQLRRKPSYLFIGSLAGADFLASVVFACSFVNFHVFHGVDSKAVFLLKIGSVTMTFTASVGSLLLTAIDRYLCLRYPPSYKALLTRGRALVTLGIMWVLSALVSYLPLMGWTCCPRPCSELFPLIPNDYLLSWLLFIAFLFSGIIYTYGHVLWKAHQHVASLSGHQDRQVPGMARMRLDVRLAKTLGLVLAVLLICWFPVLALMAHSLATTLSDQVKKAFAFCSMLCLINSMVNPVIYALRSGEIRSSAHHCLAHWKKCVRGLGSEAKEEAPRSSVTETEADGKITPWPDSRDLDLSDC

T1 sequence (P21554 whole entry): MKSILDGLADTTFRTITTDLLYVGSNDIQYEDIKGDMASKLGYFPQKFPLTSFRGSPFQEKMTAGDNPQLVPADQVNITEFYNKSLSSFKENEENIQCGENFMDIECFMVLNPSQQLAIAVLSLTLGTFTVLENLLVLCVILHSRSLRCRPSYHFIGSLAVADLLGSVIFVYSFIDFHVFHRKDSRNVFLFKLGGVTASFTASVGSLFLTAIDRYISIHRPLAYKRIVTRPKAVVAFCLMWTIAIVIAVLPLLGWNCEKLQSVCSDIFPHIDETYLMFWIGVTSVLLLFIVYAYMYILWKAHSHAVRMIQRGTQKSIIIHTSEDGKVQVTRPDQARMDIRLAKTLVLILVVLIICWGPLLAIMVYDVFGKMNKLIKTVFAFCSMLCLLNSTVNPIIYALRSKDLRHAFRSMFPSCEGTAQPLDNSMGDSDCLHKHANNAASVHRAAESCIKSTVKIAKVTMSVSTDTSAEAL

CC(C)(NC(=O)c1nn(CCCCC#N)c2ccccc12)c1ccccc1 [compound 1, 1-(4-cyanobutyl)-N-(2-phenylpropan-2-yl)indazole-3-carboxamide] showed a Ki [1] of 2.6 nM and a Ki [2] of 14.7 nM.
